Patent US20090304692A1, “TRIAZINE COMPOUNDS AS PI3 KINASE AND MTOR INHIBITORS” (Wyeth, priority 2008, published 2009)
Values joined by “and” are separate entries in the source; they are usually repeats but may differ in a detail not shown here. Identical values can stand only once. Counter-ions that a name gives are not always drawn. Like-named read-outs stand apart in the source and are kept apart here.

Key:
Human mTOR (FLAG-TOR) = Human mTOR (FLAG-TOR) (Homo sapiens, UniProt P42345); experiment: mTOR kinase assay (DELFIA format, purified enzyme); assay type: biochemical
Chain of Human mTOR (FLAG-TOR) (P42345 1360-2549 limits assumed): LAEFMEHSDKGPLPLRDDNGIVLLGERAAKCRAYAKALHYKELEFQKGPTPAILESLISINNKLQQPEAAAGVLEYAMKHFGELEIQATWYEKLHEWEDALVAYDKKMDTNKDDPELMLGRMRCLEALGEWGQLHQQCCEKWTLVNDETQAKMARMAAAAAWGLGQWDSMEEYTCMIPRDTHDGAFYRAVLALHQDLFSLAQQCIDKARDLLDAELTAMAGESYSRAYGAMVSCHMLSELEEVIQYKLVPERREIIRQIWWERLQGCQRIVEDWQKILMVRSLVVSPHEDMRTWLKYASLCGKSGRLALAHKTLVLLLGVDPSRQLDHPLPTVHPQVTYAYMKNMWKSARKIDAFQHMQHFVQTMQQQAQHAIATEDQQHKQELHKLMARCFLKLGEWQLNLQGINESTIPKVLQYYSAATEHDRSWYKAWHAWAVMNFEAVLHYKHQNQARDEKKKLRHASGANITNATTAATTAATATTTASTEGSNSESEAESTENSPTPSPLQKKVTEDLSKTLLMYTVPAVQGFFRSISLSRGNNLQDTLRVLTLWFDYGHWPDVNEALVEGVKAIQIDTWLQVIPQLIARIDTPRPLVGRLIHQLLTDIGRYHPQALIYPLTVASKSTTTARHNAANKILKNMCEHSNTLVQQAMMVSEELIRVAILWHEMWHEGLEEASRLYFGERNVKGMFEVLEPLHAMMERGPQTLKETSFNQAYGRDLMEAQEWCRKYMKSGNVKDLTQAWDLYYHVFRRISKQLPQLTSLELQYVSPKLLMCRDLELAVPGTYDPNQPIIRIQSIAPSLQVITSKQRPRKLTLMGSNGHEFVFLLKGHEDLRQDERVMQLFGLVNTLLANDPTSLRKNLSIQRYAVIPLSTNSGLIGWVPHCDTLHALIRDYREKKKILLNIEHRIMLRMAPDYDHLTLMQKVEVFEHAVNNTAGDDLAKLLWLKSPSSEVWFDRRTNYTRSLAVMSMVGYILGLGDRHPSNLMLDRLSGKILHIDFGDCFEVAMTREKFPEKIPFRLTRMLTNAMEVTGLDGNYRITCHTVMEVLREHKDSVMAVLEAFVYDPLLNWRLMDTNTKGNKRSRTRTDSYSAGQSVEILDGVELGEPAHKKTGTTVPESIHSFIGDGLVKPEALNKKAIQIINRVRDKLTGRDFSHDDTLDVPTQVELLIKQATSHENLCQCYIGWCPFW

[1] = test system: human breast MDA-MB-361 tumor cell line; experiment: In vitro cell culture growth assay (MTS), MDA-MB-361; assay type: cell-based; conditions: three days after drug treatment, read-out: IC50 MDA-MB-361
[2] = test system: human prostate PC3-mm2 tumor cell line; experiment: In vitro cell culture growth assay (MTS), PC3-mm2; assay type: cell-based; conditions: three days after drug treatment, read-out: IC50 PC3-mm2
PI3K-α = PI3K-α (Homo sapiens, UniProt P42336); experiment: PI3K-alpha fluorescence polarization assay; conditions: read-out: IC50 PI3Kα
Chain of PI3K-α (P42336 whole entry, species assumed): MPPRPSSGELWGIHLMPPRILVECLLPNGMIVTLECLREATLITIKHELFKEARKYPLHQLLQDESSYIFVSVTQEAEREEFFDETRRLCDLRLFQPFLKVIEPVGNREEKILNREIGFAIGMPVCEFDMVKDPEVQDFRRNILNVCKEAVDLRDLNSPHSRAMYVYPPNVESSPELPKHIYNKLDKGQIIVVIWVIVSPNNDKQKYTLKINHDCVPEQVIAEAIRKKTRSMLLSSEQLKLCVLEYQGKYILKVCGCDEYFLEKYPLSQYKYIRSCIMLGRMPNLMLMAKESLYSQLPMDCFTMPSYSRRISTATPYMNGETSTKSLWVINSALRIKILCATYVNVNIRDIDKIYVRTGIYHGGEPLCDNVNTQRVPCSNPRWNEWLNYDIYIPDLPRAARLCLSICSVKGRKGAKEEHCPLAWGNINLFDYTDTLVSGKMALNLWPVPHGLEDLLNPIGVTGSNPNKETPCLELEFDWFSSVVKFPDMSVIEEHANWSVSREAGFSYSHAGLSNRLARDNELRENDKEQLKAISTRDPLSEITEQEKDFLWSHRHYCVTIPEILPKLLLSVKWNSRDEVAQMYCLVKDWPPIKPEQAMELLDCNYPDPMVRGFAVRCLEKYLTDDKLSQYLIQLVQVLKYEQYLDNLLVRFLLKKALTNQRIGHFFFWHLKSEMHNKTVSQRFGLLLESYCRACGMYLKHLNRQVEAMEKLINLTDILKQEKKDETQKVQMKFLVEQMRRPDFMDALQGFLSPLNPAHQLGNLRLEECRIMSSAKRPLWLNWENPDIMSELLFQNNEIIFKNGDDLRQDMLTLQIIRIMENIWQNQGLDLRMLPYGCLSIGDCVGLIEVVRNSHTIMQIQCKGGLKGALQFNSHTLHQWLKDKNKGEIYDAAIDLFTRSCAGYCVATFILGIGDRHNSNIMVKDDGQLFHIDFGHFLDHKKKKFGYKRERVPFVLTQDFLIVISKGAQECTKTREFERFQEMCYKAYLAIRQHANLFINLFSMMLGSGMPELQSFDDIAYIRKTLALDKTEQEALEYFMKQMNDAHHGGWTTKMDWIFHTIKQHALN
Chain of PI3K-α (P27986 whole entry partner, species assumed): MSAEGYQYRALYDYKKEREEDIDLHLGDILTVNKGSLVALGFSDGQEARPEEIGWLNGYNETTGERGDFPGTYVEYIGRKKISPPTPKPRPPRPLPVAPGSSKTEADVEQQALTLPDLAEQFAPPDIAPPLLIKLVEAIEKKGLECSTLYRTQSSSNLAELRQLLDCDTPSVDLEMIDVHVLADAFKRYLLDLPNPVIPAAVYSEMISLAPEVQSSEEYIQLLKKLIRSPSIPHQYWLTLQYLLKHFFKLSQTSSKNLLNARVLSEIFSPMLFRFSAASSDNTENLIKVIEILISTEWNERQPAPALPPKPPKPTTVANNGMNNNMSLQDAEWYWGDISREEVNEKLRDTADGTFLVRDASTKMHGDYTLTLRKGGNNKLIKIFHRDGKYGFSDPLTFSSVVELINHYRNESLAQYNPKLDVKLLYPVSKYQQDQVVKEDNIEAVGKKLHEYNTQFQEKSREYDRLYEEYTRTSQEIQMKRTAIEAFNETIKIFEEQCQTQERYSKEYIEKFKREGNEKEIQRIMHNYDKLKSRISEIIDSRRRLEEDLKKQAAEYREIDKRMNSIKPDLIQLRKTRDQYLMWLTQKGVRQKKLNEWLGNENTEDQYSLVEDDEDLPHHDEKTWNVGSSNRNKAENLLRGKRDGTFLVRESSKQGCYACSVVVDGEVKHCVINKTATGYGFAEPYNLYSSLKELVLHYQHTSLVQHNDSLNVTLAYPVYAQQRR

PI3K-γ = PI3K-γ (Homo sapiens, UniProt P48736); experiment: PI3K-gamma fluorescence polarization assay; conditions: read-out: IC50 PI3Kγ
Chain of PI3K-γ (P48736 whole entry, species assumed): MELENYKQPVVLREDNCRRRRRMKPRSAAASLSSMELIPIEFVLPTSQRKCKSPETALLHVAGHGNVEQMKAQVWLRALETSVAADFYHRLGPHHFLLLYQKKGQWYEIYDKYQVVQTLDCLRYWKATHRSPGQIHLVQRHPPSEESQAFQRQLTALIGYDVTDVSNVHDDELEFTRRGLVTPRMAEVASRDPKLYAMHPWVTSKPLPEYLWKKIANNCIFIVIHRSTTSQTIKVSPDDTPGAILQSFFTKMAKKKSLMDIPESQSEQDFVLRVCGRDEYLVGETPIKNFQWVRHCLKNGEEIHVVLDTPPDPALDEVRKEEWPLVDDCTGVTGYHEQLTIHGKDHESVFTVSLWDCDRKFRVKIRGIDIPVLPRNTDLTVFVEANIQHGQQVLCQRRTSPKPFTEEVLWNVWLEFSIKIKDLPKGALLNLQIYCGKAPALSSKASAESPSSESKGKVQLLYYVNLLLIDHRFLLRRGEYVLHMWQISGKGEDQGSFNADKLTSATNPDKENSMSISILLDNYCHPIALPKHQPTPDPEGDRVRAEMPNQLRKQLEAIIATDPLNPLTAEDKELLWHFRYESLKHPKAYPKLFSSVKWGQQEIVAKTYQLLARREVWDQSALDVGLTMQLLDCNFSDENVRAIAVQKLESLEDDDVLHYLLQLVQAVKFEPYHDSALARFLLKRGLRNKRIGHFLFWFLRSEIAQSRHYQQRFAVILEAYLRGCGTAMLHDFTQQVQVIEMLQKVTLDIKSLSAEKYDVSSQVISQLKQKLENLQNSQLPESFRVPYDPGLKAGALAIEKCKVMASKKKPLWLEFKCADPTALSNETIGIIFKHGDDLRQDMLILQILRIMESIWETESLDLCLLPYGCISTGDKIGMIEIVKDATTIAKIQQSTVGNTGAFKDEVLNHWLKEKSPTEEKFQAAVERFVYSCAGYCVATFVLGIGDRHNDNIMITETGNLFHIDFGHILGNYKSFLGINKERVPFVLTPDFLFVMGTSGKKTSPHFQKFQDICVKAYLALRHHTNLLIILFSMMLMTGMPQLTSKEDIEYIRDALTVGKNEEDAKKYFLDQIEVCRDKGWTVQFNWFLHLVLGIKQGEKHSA

[3] = Homo sapiens, MDA-MB-361, 72 h, MTS cell growth assay, MDA-MB-361 cells
[4] = Homo sapiens, MDA-MB-361, 72 h, MTS cell growth assay
[5] = Homo sapiens, PC3MM2, 72 h, MTS cell growth assay, PC3-mm2 cells
[6] = Homo sapiens, PC3MM2, 72 h, MTS cell growth assay
[7] = Homo sapiens, 72 h, MTS cell growth assay, MDA-MB-361 cells
[8] = Homo sapiens, 72 h, MDA-MB-361 cells, MTS
[9] = Homo sapiens, PC3MM2, 72 h, PC3-mm2 cells, MTS

Compound | IC50 (Human mTOR (FLAG-TOR); read-out: IC50 mTOR) | IC50 (PI3K-α) [µM] | IC50 (PI3K-γ) [µM] | IC50 [2, 5] [µM] | IC50 [2, 6] [µM] | other results
1-{4-[4-(4-methylphenyl)-6-morpholin-4-yl-1,3,5-triazin-2-yl]phenyl}-3-[4-(pyrrolidin-1-ylcarbonyl)phenyl]urea [Example 553] | 0.0195 µM | 0.0125 | 0.072 |  |  | IC50 ([1]; MTS cell growth assay, MDA-MB-361 cells): 0.113 µM; IC50 ([2]; MTS cell growth assay, PC3-mm2 cells): 0.522 µM
CN1CCN(Nc2nc(-c3ccc(NC(=O)Nc4ccccc4)cc3)nc(N3CCOCC3)n2)CC1 [Example 686, 1-(4-{4-[(4-methylpiperazin-1-yl)amino]-6-morpholin-4-yl-1,3,5-triazin-2-yl}phenyl)-3-phenylurea] | 0.026 µM | 0.077 | 0.54 | 1.1 |  | IC50 [1, 7]: 0.569 µM
O=C(Nc1ccc(C(=O)N2CCOCC2)cc1)Nc1ccc(-c2nc(N3CCOCC3)nc(N3CCOCC3)n2)cc1 [Example 152, 1-[4-(4,6-dimorpholin-4-yl-1,3,5-triazin-2-yl)phenyl]-3-[4-(morpholin-4-ylcarbonyl)phenyl]urea] | 0.002 µM | 0.002 | 0.005 |  | 0.014 | IC50 [1, 4]: 0.009 µM
CCN1CCN(C(=O)c2ccc(NC(=O)Nc3ccc(-c4nc(N5CCCCC5)nc(N5CCOCC5)n4)cc3)cc2)CC1 [Example 596, 1-{4-[(4-ethylpiperazin-1-yl)carbonyl]phenyl}-3-[4-(4-morpholin-4-yl-6-piperidin-1-yl-1,3,5-triazin-2-yl)phenyl]urea] | 0.013 µM | 0.005 | 0.0405 | 0.155 |  | IC50 [1, 3]: 0.026 µM
O=C(Nc1ccc(C(=O)NCCN2CCCC2)cc1)Nc1ccc(-c2nc(N3CCOCC3)nc(N3C4COCC3COC4)n2)cc1 [Example 774, 4-[({4-[4-(3,7-dioxa-9-azabicyclo[3.3.1]non-9-yl)-6-morpholin-4-yl-1,3,5-triazin-2-yl]phenyl}carbamoyl)amino]-N-(2-pyrrolidin-1-ylethyl)benzamide] | 0.00023 µM | 0.002 | 0.0415 | 0.019 |  | IC50 [1, 7]: 0.014 µM
CC(=O)c1cccc(NC(=O)Nc2ccc(-c3nc(OC4CCOCC4)nc(N4CCOCC4)n3)cc2)c1 [Example 65, 1-(3-acetylphenyl)-3-{4-[4-morpholin-4-yl-6-(tetrahydro-2H-pyran-4-yloxy)-1,3,5-triazin-2-yl]phenyl}urea] | 0.00505 µM | 0.015 | 0.083 |  | 0.267 | IC50 [1, 4]: 0.151 µM
O=C(Nc1ccncc1)Nc1ccc(-c2nc(OC3CCNCC3)nc(N3CCOCC3)n2)cc1 [Example 688, 1-{4-[4-morpholin-4-yl-6-(piperidin-4-yloxy)-1,3,5-triazin-2-yl]phenyl}-3-pyridin-4-ylurea] | 0.008 µM | 0.003 | 0.0355 | 1.95 |  | IC50 [1, 7]: 1.41 µM
COCCOc1nc(-c2ccc(NC(=O)Nc3ccncc3)cc2)nc(N2CCOCC2)n1 [Example 200, 1-{4-[4-(2-methoxyethoxy)-6-morpholin-4-yl-1,3,5-triazin-2-yl]phenyl}-3-pyridin-4-ylurea] | 0.0065 µM and 0.00645 µM | 0.014 | 0.128 | 0.248 | 0.248 | IC50 [1, 4]: 0.162 µM; IC50 (PI3K-α; listed as 714): 0.0155 µM; IC50 (PI3K-γ; listed as 714): 0.069 µM
COCCNC(=O)c1ccc(NC(=O)Nc2ccc(-c3nc(-c4ccc(C)cc4)nc(N4CCOCC4)n3)cc2)cc1 [Example 550, N-(2-methoxyethyl)-4-[({4-[4-(4-methylphenyl)-6-morpholin-4-yl-1,3,5-triazin-2-yl]phenyl}carbamoyl)amino]benzamide] | 0.0124 µM | 0.047 | 0.374 | 0.711 |  | IC50 [1, 7]: 0.315 µM
CNCCN(C)C(=O)c1ccc(NC(=O)Nc2ccc(-c3nc(N4CCOCC4)nc(N4C5CCCC4COC5)n3)cc2)cc1 [Example 802, N-methyl-N-[2-(methylamino)ethyl]-4-[({4-[4-morpholin-4-yl-6-(3-oxa-9-azabicyclo[3.3.1]non-9-yl)-1,3,5-triazin-2-yl]phenyl}carbamoyl)amino]benzamide] | 0.000675 µM | 0.0035 | 0.023 |  |  | IC50 [1, 8]: 0.003 µM; IC50 [2, 9]: 0.05 µM

Further lines, with some results ahead:

IC50 (Human mTOR (FLAG-TOR); read-out: IC50 mTOR) | IC50 (PI3K-α) [µM] | IC50 (PI3K-γ) [µM] | IC50 [2, 5] [µM] | IC50 [2, 6] [µM] | Compound | other results
0.0042 µM and 0.0046 µM | 0.003 | 0.016 | 0.066 | 0.066 | Nc1ccc(NC(=O)Nc2ccc(-c3nc(N4CCOCC4)nc(N4CCOCC4)n3)cc2)cc1 [Example 351, 1-(4-aminophenyl)-3-[4-(4,6-dimorpholin-4-yl-1,3,5-triazin-2-yl)phenyl]urea] | IC50 [1, 3]: 0.05 µM; IC50 [1, 4]: 0.05 µM; IC50 (PI3K-γ; listed as 497): 0.019 µM
 | 0.0004 | 0.008 |  | 0.0183 | CN(C)CCN(C)C(=O)c1ccc(NC(=O)Nc2ccc(-c3nc(N4CCOCC4)nc(N4CCOCC4)n3)cc2)cc1 [Example 71, N-(2-(dimethylamino)ethyl)-4-(3-(4-(4,6-dimorpholino-1,3,5-triazin-2-yl)phenyl)ureido)-N-methylbenzamide hydrochloride] | IC50 (Human mTOR (FLAG-TOR); IC50 mTOR): 0.00067 µM; IC50 [1, 4]: < 0.0098 µM
0.012 µM | 0.04 | 0.143 | > 1 |  | O=C(Nc1ccc(C(=O)O)cc1)Nc1ccc(-c2nc(N3CCCCC3)nc(N3CCOCC3)n2)cc1 [Example 593, 4-({[4-(4-morpholin-4-yl-6-piperidin-1-yl-1,3,5-triazin-2-yl)phenyl]carbamoyl}amino)benzoic acid] | IC50 [1, 3]: > 1 µM
0.00089 µM | 0.001 | 0.007 | 0.0085 | 0.0085 | CN(C)C1CCN(C(=O)c2ccc(NC(=O)Nc3ccc(-c4nc(C5CCOCC5)nc(N5CCOCC5)n4)cc3)cc2)CC1 [Example 350, 1-(4-{[4-(dimethylamino)piperidin-1-yl]carbonyl}phenyl)-3-{4-[4-morpholin-4-yl-6-(tetrahydro-2H-pyran-4-yl)-1,3,5-triazin-2-yl]phenyl}urea] | IC50 [1, 3]: < 0.00308 µM; IC50 (PI3K-α; listed as 478): 0.0011 µM; IC50 (PI3K-γ; listed as 478): 0.006 µM; IC50 (PI3K-γ; listed as 510): 0.0063 µM
0.00106 µM | 0.0024 | 0.026 |  |  | CN(C)CCN(C)C(=O)c1ccc(NC(=O)Nc2ccc(-c3nc(N4CCOCC4)nc(N4CC5CCC4CO5)n3)cc2)cc1 (centres unmarked) [Example 816, N-[2-(dimethylamino)ethyl]-N-methyl-4-[({4-[4-morpholin-4-yl-6-(2-oxa-5-azabicyclo[2.2.2]oct-5-yl)-1,3,5-triazin-2-yl]phenyl}carbamoyl)amino]benzamide] | IC50 [1, 8]: 0.002 µM; IC50 [2, 9]: 0.011 µM
0.01 µM | 0.0055 | 0.04 | 0.214 |  | CN(C)C1CCN(C(=O)c2ccc(NC(=O)Nc3ccc(-c4nc(N5CCCCC5)nc(N5CCOCC5)n4)cc3)cc2)CC1 [Example 598, 1-(4-{[4-(dimethylamino)piperidin-1-yl]carbonyl}phenyl)-3-[4-(4-morpholin-4-yl-6-piperidin-1-yl-1,3,5-triazin-2-yl)phenyl]urea] | IC50 [1, 3]: 0.022 µM
0.003 µM | 0.0022 | 0.046 | 0.092 |  | CN(C)CCN(C)C(=O)c1ccc(NC(=O)Nc2ccc(-c3nc(N4CCCCC4)nc(N4CCOCC4)n3)cc2)cc1 [Example 605, N-[2-(dimethylamino)ethyl]-N-methyl-4-({[4-(4-morpholin-4-yl-6-piperidin-1-yl-1,3,5-triazin-2-yl)phenyl]carbamoyl}amino)benzamide] | IC50 [1, 7]: 0.007 µM
